Assay results published in publication PMC6668378, “Maturation of coagulation factor IX during Xase formation as deduced using factor VIII‐derived peptides” (FEBS Open Bio, 2019).
Like-named read-outs stand apart in the source and are kept apart here. Square brackets hold non-standard residues; d marks the D form. Ends that are not written are not given here. Peptide text beside a SMILES is read from it. sY = N[C@@H](Cc1ccc(OS(=O)(=O)O)cc1)C(=O)O

Assays:
FIX wt = target: T1, FIX wt (Homo sapiens, UniProt P00740); test: SAM5 binding of zymogenic FIX wt to immobilized FVIIIa-derived peptide; conditions: no additive; peptide immobilized on carboxymethyl-dextran chip, FIX wt 10-250 nM in mobile phase, 40 μL/min, 4 min association, 4 min dissociation, one-to-one two-state model; 20 mM HEPES pH 7.5, 150 mM NaCl, 5 mM CaCl2
T1 construct: made in house; host or cells: Escherichia coli
Method: (§1) Factor IX protein variants were expressed in Escherichia coli, refolded, purified and activated as described elsewhere 8, 9, 10.
(§2) The factor VIII‐derived peptides Ser558‐Gln565 (SVDQRGNQ) and Lys713‐Arg740 (KHTGDsYsYEDSsYEDISAYLLSKNNAIEPR; sY: sulfotyrosine) were purchased from JPT Peptide Technologies. Quality was controlled by HPLC and mass spectrometry and confirmed to be of better than 90% homogeneity.
(§3) Prior to the chip calibration at 22 °C, the instrument was flushed with a flow rate of 40 μL·min^−1 for 5 to 10 min. Chip calibration was performed using the SAM5 program with gain of 180 and a phase difference of 0.363.
(§4) The SAM5 instrument with a dextran‐COOH‐coated gold chip (NanoTemper Technologies) was equilibrated using filtered and degassed PBS running buffer, and the chip was calibrated as described above. 1‐ethyl‐3‐(3‐dimethylaminopropyl) carbodiimide (EDC) and N‐hydroxysuccinimide (NHS) were dissolved in ddH2O to a final concentration of 400 mM and 100 mM, respectively. To activate the chip, EDC and NHS were mixed at equal volume, resulting in the final concentrations of 200 mM EDC and 50 mM NHS. […]
(§5) Firstly, pumps were washed using filtered and degassed running buffer (20 mM HEPES pH 7.5, 150 mM NaCl, 5 mM CaCl2). […] The sensogram SAM5 data were exported to Origin and TraceDrawer, allowing to analyse and quantify the protein binding affinities, as described in the SAM5 user manual. […]

FIXa wt = target: T2, FIXa wt (Homo sapiens, UniProt P00740); test: SAM5 binding of activated FIXa wt to immobilized FVIIIa-derived peptide; conditions: no additive, FIXa wt as analyte 10-250 nM, pH 7.5, 5 mM CaCl2
T2 construct: made in house; host or cells: Escherichia coli
Method: as §1, §2, §3, §4
(§6) Firstly, pumps were washed using filtered and degassed running buffer (20 mM HEPES pH 7.5, 150 mM NaCl, 5 mM CaCl2). […] The sensogram SAM5 data were exported to Origin and TraceDrawer, allowing to analyse and quantify the protein binding affinities, as described in the SAM5 user manual.

FIX‐R170L = target: T3, FIX‐R170L (Homo sapiens, UniProt P00740, R384L); test: SAM5 binding of zymogenic FIX-R170L (Padua) to immobilized FVIIIa-derived peptide; conditions: no additive, FIX-R170L as analyte 10-250 nM, pH 7.5, 5 mM CaCl2
T3 construct: made in house; host or cells: Escherichia coli
Method: as §1, §2, §3, §4, §6

FIXa R170L = target: T4, FIXa R170L (Homo sapiens, UniProt P00740, R384L); test: SAM5 binding of activated FIXa R170L (Padua) to immobilized FVIIIa-derived peptide; conditions: no additive, FIXa R170L as analyte 10-250 nM, pH 7.5, 5 mM CaCl2
T4 construct: made in house; host or cells: Escherichia coli
Method: as §1, §2, §3, §4, §6

[1] = tested on: activation peptide of factor IX and factor X; conditions: cited from earlier work; for affinity towards activation peptide binding site relative to active site: factor IX and factor X
From the text: In the protease factors IX and X, proteolytic activation at Arg180 (FX: Arg194) and Arg145 releases an activation peptide, triggering a conformational disorder‐to‐order transition in the serine protease domain (Figs 2 and S1). The activation peptide is positioned between the light chain (consisting of the N‐terminal Gla, EGF1 and EGF2 domains) and the trypsin‐like serine protease domain. Light and heavy chains remain covalently linked via a disulfide bond. In both factor IX and factor X, the activation peptide harbours an intriguing high‐affinity binding site for benzamidine/arginine, exceedin ...

[2] = tested on: coagulation factor VIII (nonactivated FVIII); test: Surface acoustic wave (SAM5) binding of FIX(a) variants to immobilized factor VIII
Method: as §3
as §4, with “NHS. The mixture was rapidly placed into position A1 of the tray holder. If carried out properly, the baseline will increase. Subsequently, the ligand (protein ligands at 250–500 nM concentration, peptidic ligands at 100 μM to 1 mM concentration) was placed into the tray holder at position A1. The binding of the ligand to the dextran matrix is based on electrostatic interactions.” for “NHS.”
as §5

[3] = target: activated factor VIIIa (FVIIIa); test: Surface acoustic wave (SAM5) binding of FIX(a) variants to immobilized activated factor VIIIa; conditions: for Kd: FVIIIa immobilized on dextran chip, SAM5 Blue surface acoustic wave, analyte 10-250 nM, 40 μL/min, 20 mM HEPES pH 7.5, 150 mM NaCl, 5 mM CaCl2, read-out: Kd, interaction with activated factor VIIIa
Method: pro‐FVIII was generously provided by Baxter Biosciences (Vienna, Austria). Human thrombin was purchased from Sigma. For activation, 100 μg FVIII lyophilisate was dissolved in ddH2O and spin‐dialysed by repeated concentration in 30 kDa cut‐off Amicon concentrators to a final concentration of ~ 0.2 mg·mL^−1. FVIII was activated by thrombin similar to protocols described elsewhere 11, 12. Briefly, thrombin was dissolved in 20 mM Hepes, pH 7.5, 100 mM NaCl and 5 mM CaCl2. 1 unit of thrombin was added to 1000 units of FVIII (100 μg) and incubated for 15 min at 37 °C without shaking. The protein mixture was then dialysed by in total four centrifugation steps against a 4 °C cold wash buffer consisting of 50 mM Hepes, pH 7.4, 300 mM NaCl and 2.5 mM CaCl2. The reaction was stopped after the second concentration step by adding 20 μL 50 mM PMSF to inhibit thrombin. The activation of FVIIIa was controlled by SDS/PAGE to observe the A1, A2 and A3‐C1‐C2 at ~55 kDa, 40 kDa and 70 kDa, respectively.
as §3
as §4, with “NHS. The mixture was rapidly placed into position A1 of the tray holder.” for “NHS.”
as §5

T4 sequence (P00740 227-461 R384L): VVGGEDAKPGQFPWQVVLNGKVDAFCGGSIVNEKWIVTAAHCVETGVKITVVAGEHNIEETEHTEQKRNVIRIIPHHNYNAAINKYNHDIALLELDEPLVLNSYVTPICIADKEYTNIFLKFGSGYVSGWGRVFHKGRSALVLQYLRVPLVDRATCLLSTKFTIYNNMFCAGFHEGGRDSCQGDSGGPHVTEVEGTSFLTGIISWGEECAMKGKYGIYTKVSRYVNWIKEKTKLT
T4 sequence (P00740 47-191 partner limits assumed): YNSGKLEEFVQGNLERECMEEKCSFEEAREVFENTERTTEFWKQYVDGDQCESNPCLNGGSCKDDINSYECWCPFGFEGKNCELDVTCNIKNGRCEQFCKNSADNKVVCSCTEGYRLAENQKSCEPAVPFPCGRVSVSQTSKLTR
T2 sequence (P00740 227-461 limits assumed): as the sequence (P00740 227-461 R384L) above, with L158R counted along it
T2 sequence (P00740 47-191 partner limits assumed): as the sequence (P00740 47-191 partner limits assumed) above
T1 sequence (P00740 29-461 limits assumed): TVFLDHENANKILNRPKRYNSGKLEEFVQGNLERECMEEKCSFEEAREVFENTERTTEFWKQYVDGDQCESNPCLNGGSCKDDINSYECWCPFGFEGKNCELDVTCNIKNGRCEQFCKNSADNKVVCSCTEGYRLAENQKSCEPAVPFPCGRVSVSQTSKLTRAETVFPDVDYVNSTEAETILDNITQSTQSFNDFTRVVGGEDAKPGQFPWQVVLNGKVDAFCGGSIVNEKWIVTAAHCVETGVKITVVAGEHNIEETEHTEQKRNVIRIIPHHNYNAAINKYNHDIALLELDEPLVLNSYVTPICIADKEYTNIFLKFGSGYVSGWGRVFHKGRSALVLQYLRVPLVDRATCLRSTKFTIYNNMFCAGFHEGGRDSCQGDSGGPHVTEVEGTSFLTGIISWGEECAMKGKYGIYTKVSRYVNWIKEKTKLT
T3 sequence (P00740 133-461 R384L limits assumed): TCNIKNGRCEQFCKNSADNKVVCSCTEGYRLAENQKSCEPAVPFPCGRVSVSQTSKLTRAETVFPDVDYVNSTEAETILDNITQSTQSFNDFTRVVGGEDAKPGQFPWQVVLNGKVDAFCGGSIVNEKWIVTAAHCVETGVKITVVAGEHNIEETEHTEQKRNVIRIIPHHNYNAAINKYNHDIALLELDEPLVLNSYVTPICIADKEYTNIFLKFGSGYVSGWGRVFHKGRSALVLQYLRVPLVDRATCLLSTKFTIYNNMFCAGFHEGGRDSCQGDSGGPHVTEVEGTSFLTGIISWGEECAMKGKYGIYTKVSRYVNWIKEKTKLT

Compound | Kd (FIX wt) [nM] | Kd (FIXa wt) [nM] | Kd (FIX‐R170L) [nM] | Kd (FIXa R170L) [nM] | affinity towards activation peptide binding site relative to active site [1] | other results
N=C(N)NCCC[C@H](N)C(=O)O [arginine] | – | – | – | – | exceeding the affinity towards the active site by an order of magnitude | –
N=C(N)c1ccccc1 [benzamidine] | – | – | – | – | exceeding the affinity towards the active site by an order of magnitude | –
FIX wt: recombinant zymogenic factor IX wild-type, expressed in Escherichia coli and refolded | – | – | – | – | – | affinity to cofactor VIII relative to activated FIXa wt ([2]; FIX wt versus FIXa wt): more than 10 fold; Kd ([2]; analyte incubated with 1 μM aprotinin (BPTI), FVIII immobilized on dextran chip, SAM5 Blue surface acoustic wave, analyte 10-250 nM, 40 μL/min, 20 mM HEPES pH 7.5, 150 mM NaCl, 5 mM CaCl2, read-out: Kd, interaction with nonactivated factor VIII): 65.8 ± 21.2 nM; Kd ([3]; analyte incubated with 1 μM aprotinin (BPTI)): 72.2 ± 60.2 nM; Kd ([3]; analyte incubated with 1 mM benzamidine): 83.6 ± 140 nM; higher affinity of zymogenic FIX wt than FIXa wt for activated factor VIIIa ([3]; in the presence of both benzamidine and BPTI): confirmed also when activated factor VIIIa was used as a binding partner
basic pancreatic trypsin inhibitor [BPTI] | – | – | – | – | – | binding to activation peptide versus active site ([1]; factor IX/X, background statement, no reference given): do not bind to the activation peptide but to the active site exclusively

The next lines start with results.

Kd (FIX wt) [nM] | Kd (FIXa wt) [nM] | Kd (FIX‐R170L) [nM] | Kd (FIXa R170L) [nM] | Compound | affinity towards activation peptide binding site relative to active site [1] | other results
65.8 ± 23.5 | 98.9 ± 11.6 | 52.8 ± 9.75 | 103 ± 16.6 | CC[C@H](C)[C@H](NC(=O)[C@H](C)NC(=O)[C@H](CC(N)=O)NC(=O)[C@H](CC(N)=O)NC(=O)[C@H](CCCCN)NC(=O)[C@H](CO)NC(=O)[C@H](CC(C)C)NC(=O)[C@H](CC(C)C)NC(=O)[C@H](Cc1ccc(O)cc1)NC(=O)[C@H](C)NC(=O)[C@H](CO)NC(=O)[C@@H](NC(=O)[C@H](CC(=O)O)NC(=O)[C@H](CCC(=O)O)NC(=O)[C@H](Cc1ccc(OS(=O)(=O)O)cc1)NC(=O)[C@H](CO)NC(=O)[C@H](CC(=O)O)NC(=O)[C@H](CCC(=O)O)NC(=O)[C@H](Cc1ccc(OS(=O)(=O)O)cc1)NC(=O)[C@H](Cc1ccc(OS(=O)(=O)O)cc1)NC(=O)[C@H](CC(=O)O)NC(=O)CNC(=O)[C@@H](NC(=O)[C@H](Cc1c[nH]cn1)NC(=O)[C@@H](N)CCCCN)[C@@H](C)O)[C@@H](C)CC)C(=O)N[C@@H](CCC(=O)O)C(=O)N1CCC[C@H]1C(=O)N[C@@H](CCCNC(=N)N)C(=O)O [a2 peptide, KHTGDsYsYEDSsYEDISAYLLSKNNAIEPR] (H-KHTGD[sY][sY]EDS[sY]EDISAYLLSKNNAIEPR-OH) | – | –
172 ± 37.6 | 457 ± 121 | 173 ± 57.1 | 374 ± 138 | SVDQRGNQ [558‐loop, SVDQRGNQ] | – | –
